Where a name gives a salt, the structure may show the parent alone.

One data set deals with T1, squalene synthetase (Homo sapiens, UniProt P37268).
T1 construct: This suspension was used as the enzyme solution; endogenous in cells; host or cells: HepG2 human hepatic carcinoma cells; membrane fraction (105000×g sediment) of the sonicate
T1 sequence (P37268 1-417): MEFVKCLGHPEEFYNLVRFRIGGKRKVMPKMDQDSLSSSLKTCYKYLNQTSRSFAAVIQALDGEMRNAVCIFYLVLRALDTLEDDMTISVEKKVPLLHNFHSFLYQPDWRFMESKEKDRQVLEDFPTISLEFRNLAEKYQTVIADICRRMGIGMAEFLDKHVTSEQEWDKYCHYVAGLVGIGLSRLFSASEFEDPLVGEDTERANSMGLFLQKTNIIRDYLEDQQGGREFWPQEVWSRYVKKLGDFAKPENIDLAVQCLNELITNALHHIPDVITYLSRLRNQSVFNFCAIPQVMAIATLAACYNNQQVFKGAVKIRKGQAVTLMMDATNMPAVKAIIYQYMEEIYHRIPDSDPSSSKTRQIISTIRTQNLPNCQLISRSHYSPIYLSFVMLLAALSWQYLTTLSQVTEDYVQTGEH
Kind of data set: Squalene synthetase inhibitory activity (human-derived enzyme prepared from HepG2 cells). It is filed as biochemical. The note with it: [1-3H] farnesyl pyrophosphate, 37° C., 45 minutes, read-out: Inhibitory Activity (IC50, 10^−9 M). Here is the method: The squalene synthetase inhibitory activity was assayed as follows with the enzyme solutions prepared in accordance with the method described below.
More specifically, an enzyme solution (protein content 0.8 μg) prepared in accordance with the method described below was added to a solution (total volume 50 μl)) containing 5 μM [1-^3H] farnesyl pyrophosphate (specific activity 25 μCi/mole), 1 mM NADPH (nicotinamide adenine dinucleotide phosphate of reduced type), 5 mM MgCl2, 6 mM glutathione, a 100 mM buffer solution of potassium phosphate (pH 7.4) and a test drug (used as an aqueous solution or a DMSO solution), then the reaction was allowed to proceed at 37° C. for 45 minutes. To the reaction mixture was added 150 μl of a mixture of chloroform and methanol (1:2) to suspend the reaction, followed by adding 50 Al of chloroform and 50 μl of a 3N solution of sodium hydroxide. 50 μl of the chloroform layer (lower layer) containing the reaction mixture having squalene as the principal component and 3 ml of toluene-based liquid scintillator were mixed, and its radioactivity was determined by means of a liquid scintillation counter.
The squalene synthetase inhibitory activity was expressed in terms of the concentration inhibiting by 50% the radioactivity taken into the chloroform layer (IC50, molar concentration (M)), as shown in Table 7. Preparation of human-derived enzyme
Human hepatic carcinoma cells HepG2 (about 1×10^9 cells) obtained by incubation on a Dulbecco-modified Eagle's medium (37° C. in the presence of 5% CO2) containing 10% fetal bovine serum were suspended in 10 ml of an ice-cooled buffer solution (100 mM potassium phosphate buffer (pH 7.4), 30 mM nicotinamide and 2.5 mM MgCl2]. The cells were crashed by means of ultrasonication (for 30 seconds, twice). The sonicate thus obtained was subjected to centrifugation for 20 minutes (4° C.) with 10000×g. The supernatant layer was subjected to further centrifugation for 90 minutes (4° C.) with 105000×g. The sediment was then suspended in an ice-cooled 100 mM potassium phosphate buffer (pH 7.4), which was again subjected to centrifugation for 90 minutes (4° C.) with 105000×g. This fraction was suspended in an ice-cooled 100 mM potassium phosphate buffer solution (pH 7.4) (about 4 mg/ml protein concentration). This suspension was used as the enzyme solution.

Consider `CCC(C)[C@H](NC(=O)C[C@H]1O[C@H](c2cccc(OC)c2OC)c2cc(Cl)ccc2N(CC(C)(C)C)C1=O)C(=O)O` (stereo partly drawn) [Compound 4-8], for which the melting point lay within 137 to 139 °C. Also, the IC50 at squalene synthetase was found to be 11 nM.

Compound `COc1cccc([C@H]2O[C@H](CC(=O)N3CCC(CCc4nnn[nH]4)CC3)C(=O)N(CC(C)(C)C)c3ccc(Cl)cc32)c1OC` [Compound 25, 5-[2-[N-[(3R,5S)-7-chloro-5-(2,3-dimethoxyphenyl)-1-neopentyl-2-oxo-1,2,3,5-tetrahydro-4,1-benzoxazepine-3-acetyl]piperidin-4-yl]ethyl]1H(or 3H)-tetrazole] yielded a melting point of 155 to 158 °C. In addition, at squalene synthetase, the IC50 was 29 nM.

Take `COc1cccc([C@H]2O[C@H](CC(=O)NCP(=O)(O)O)C(=O)N(CC(C)(C)C)c3ccc(Cl)cc32)c1OC` [Compound 22, (3R,5S)-N-phosphonomethyl-7-chloro-5-(2,3-dimethoxyphenyl)-1-neopentyl-2-oxo-1,2,3,5-tetrahydro-4,1-benzoxazepine-3-acetamide]: the melting point was 152 to 155 °C. In addition, on squalene synthetase, the IC50 turned out to be 8.5 nM.

The compound `COc1cccc([C@H]2O[C@H](CC(=O)NCC(O)CC(=O)O)C(=O)N(CC(C)(C)C)c3ccc(Cl)cc32)c1OC` (stereo partly drawn) [Compound 4-24] showed a melting point of 122 to 124 °C. At squalene synthetase, the IC50 is 14 nM.

On to `COc1cccc([C@H]2O[C@H](CC(=O)NCP(=O)(O)O)C(=O)N(CC(C)(C)CO)c3ccc(Cl)cc32)c1OC` [Compound 27, (3R,5S)-N-phosphonomethyl-7-chloro-5-(2,3-dimethoxyphenyl)-1-(3-hydroxy-2,2-dimethylpropyl)-2-oxo-1,2,3,5-tetrahydro-4,1-benzoxazepine-3-acetamide], for which, on squalene synthetase, the IC50 amounted to 20 nM.

The compound `COc1cccc([C@H]2O[C@H](CC(=O)N3CCN(CC(=O)O)C(=O)C3)C(=O)N(CC(C)(C)C)c3ccc(Cl)cc32)c1OC` [Compound 4-31] displayed a melting point of 162 to 164 °C. Moreover, the concentration for half-maximal inhibition (IC50) on squalene synthetase came out at 20 nM.

`COc1cccc([C@H]2O[C@H](CC(=O)NS(C)(=O)=O)C(=O)N(CC(C)(C)CO)c3ccc(Cl)cc32)c1OC` [Compound 19, (3R,5S)-N-methylsulfonyl-7-chloro-5-(2,3-dimethoxyphenyl)-1-(3-hydroxy-2,2-dimethylpropyl)-2-oxo-1,2,3,5-tetrahydro-4,1-benzoxazepine-3-acetamide] yielded a melting point of 221 to 223 °C. Besides, at squalene synthetase, the IC50 worked out at 32 nM.

Turning to `COc1cccc([C@H]2O[C@H](CC(=O)N3CCC(CC(=O)NS(C)(=O)=O)CC3)C(=O)N(CC(C)(C)CO)c3ccc(Cl)cc32)c1OC` [Compound 21, N-methylsulfonyl-[N-[(3R,5S)-7-chloro-5-(2,3-dimethoxyphenyl)-1-(3-hydroxy-2,2-dimethylpropyl)-2-oxo-1,2,3,5-tetrahydro-4,1-benzoxazepine-3-acetyl]piperidine]-4-acetamide], the melting point was 175 to 180 °C. The IC50 at squalene synthetase was 26 nM.

The compound `COc1cccc([C@H]2O[C@H](CC(=O)N3CCC(=CC(=O)O)CC3)C(=O)N(CC(C)(C)C)c3ccc(Cl)cc32)c1OC` [Compound 4-18] had a melting point of 228 to 230 °C. For the same compound, on squalene synthetase, the IC50 was 18 nM.

Compound `COc1cccc([C@H]2O[C@H](CC(=O)N[C@H](C(=O)O)C(C)C)C(=O)N(CC(C)(C)C)c3ccc(Cl)cc32)c1OC` [Compound 4-29] gave a melting point of 129 to 132 °C. In addition, on squalene synthetase, the IC50 came out at 15 nM.

Take `COc1cccc([C@H]2O[C@H](CC(=O)N3CCC(C(=O)O)CC3)C(=O)N(CC(C)(C)CO)c3ccc(Cl)cc32)c1OC` [Compound 13-2]: the IC50 at squalene synthetase worked out at 18 nM.

`COc1cccc([C@H]2O[C@H](CC(=O)N3CCC(Cc4nnn[nH]4)CC3)C(=O)N(CC(C)(C)C)c3ccc(Cl)cc32)c1OC` [Compound 24, 5-[[N-[(3R,5S)-7-chloro-5-(2,3-dimethoxyphenyl)-1-neopentyl-2-oxo-1,2,3,5-tetrahydro-4,1-benzoxazepine-3-acetyl]piperidin-4-yl]methyl]1H(or 3H)-tetrazole] yielded a melting point of 168 to 170 °C. Also, on squalene synthetase, the IC50 was found to be 17 nM.

`COc1cccc([C@H]2O[C@H](Cc3nnn[nH]3)C(=O)N(CC(C)(C)CO)c3ccc(Cl)cc32)c1OC` [Compound 11, (3R, 5S)-7-Chloro-5-(2,3-dimethoxyphenyl)-1-(3-hydroxy-2,2-dimethylpropyl)-1,2,3,5-tetrahydro-3-[1H (or 3H)-tetrazol-5-yl]methyl-4,1-benzoxazepin-2-one] displayed a melting point of 158 to 160 °C.

For `COc1cccc([C@H]2O[C@H](Cc3nc(=O)o[nH]3)C(=O)N(CC(C)(C)C)c3ccc(Cl)cc32)c1OC` [Compound 8, (3R,5S)-7-Chloro-5-(2,3-dimethoxyphenyl)-1-neopentyl-3-(2,5-dihydro-5-oxo-1,2,4-oxadiazol-3-yl) methyl-1,2,3,5-tetrahydro-4,1-benzoxazepin-2-one], the melting point was 130 to 133 °C. Also, the IC50 at squalene synthetase is 12 nM.

In turn, `COc1cccc([C@H]2O[C@H](CC(=O)N3CCC(C(=O)NS(C)(=O)=O)CC3)C(=O)N(CC(C)(C)C)c3ccc(Cl)cc32)c1OC` [Compound 18] registered a melting point of 187 to 189 °C. Further, at squalene synthetase, the IC50 was found to be 15 nM.

Take `COc1cccc([C@H]2O[C@H](CC(=O)N[C@@H](Cc3ccc(O)cc3)C(=O)O)C(=O)N(CC(C)(C)C)c3ccc(Cl)cc32)c1OC` [Compound 4-26]: the melting point lay in the range of 160 to 162 °C. The IC50 at squalene synthetase stood at 15 nM.

Turning to `COc1cccc([C@H]2O[C@H](CC(=O)N[C@@H](CC(=O)O)C(=O)O)C(=O)N(CC(C)(C)C)c3ccc(Cl)cc32)c1OC` [Compound 4-10], the melting point was 145 to 150 °C. The concentration for half-maximal inhibition (IC50) at squalene synthetase is 11 nM.

`COc1cccc([C@H]2O[C@H](CC(=O)NS(C)(=O)=O)C(=O)N(CC(C)(C)COC(C)=O)c3ccc(Cl)cc32)c1OC` [Compound 41, (3R,5S)-N-Methylsulfonyl-1-(3-acetoxy-2,2-dimethylpropyl)-7-chloro-5-(2,3-dimethoxyphenyl)-2-oxo-1,2,3,5-tetrahydro-4,1-benzoxazepine-3-acetamide] displayed a melting point of 108 to 112 °C.

`COc1cccc([C@H]2O[C@H](CC(=O)N3CCC(O)(C(=O)O)CC3)C(=O)N(CC(C)(C)C)c3ccc(Cl)cc32)c1OC` [Compound 4-19] yielded a melting point of 156 to 159 °C. For the same compound, on squalene synthetase, the IC50 worked out at 18 nM.

On to `COc1cccc([C@H]2O[C@H](CC(=O)NS(=O)(=O)c3ccccc3C)C(=O)N(CC(C)(C)C)c3ccc(Cl)cc32)c1OC` [Compound 17-1], for which, on squalene synthetase, the IC50 is 13 nM.

On to `COc1cccc([C@H]2O[C@H](Cc3nnn[nH]3)C(=O)N(CC(C)(C)C)c3ccc(Cl)cc32)c1OC` [Compound 9, (3R, 5S)-7-Chloro-5-(2,3-dimethoxyphenyl)-1-neopentyl-1,2,3,5-tetrahydro-3-(tetrazol-5-yl)methyl-4,1-benzoxazepin-2-one sodium salt], for which the IC50 at squalene synthetase was found to be 9.5 nM.

Compound `COc1cccc([C@H]2O[C@H](CC(=O)N[C@@H](Cc3ccccc3)C(=O)O)C(=O)N(CC(C)(C)C)c3ccc(Cl)cc32)c1OC` [Compound 4-15] registered a melting point of 134 to 136 °C. Besides, the IC50 on squalene synthetase stood at 19 nM.

`CCOP(=O)(CNC(=O)C[C@H]1O[C@H](c2cccc(OC)c2OC)c2cc(Cl)ccc2N(CC(C)(C)CO)C1=O)OCC` had a melting point of 138 to 140 °C.

Turning to `COc1cccc([C@H]2O[C@H](CC(=O)NS(=O)(=O)C(C)C)C(=O)N(CC(C)(C)C)c3ccc(Cl)cc32)c1OC` [Compound 17-3], the melting point was in the range of 149 to 150 °C. Further, the IC50 at squalene synthetase came out at 11 nM.

`COc1cccc([C@H]2O[C@H](CC(=O)NS(C)(=O)=O)C(=O)N(CC(C)(CO)CO)c3ccc(Cl)cc32)c1OC` [Compound 20, (3R,5S)-N-methylsulfonyl-7-chloro-5-(2,3-dimethoxyphenyl)-1-(3-hydroxy-2-hydroxymethyl-2-methylpropyl)-2-oxo-1,2,3,5-tetrahydro-4,1-benzoxazepine-3-acetamide]: the IC50 at squalene synthetase came out at 48 nM.

The values above are taken from patent publication US6613761B1, “Benzoxazepine compounds, their production and use” (Takeda Chemical Industries, Ltd., priority 1995, dated 2003).
